Reference: patent US20180243325A1, “METHOD FOR INHIBITING ABSORPTION OF AND/OR PROMOTING EXCRETION OF LIPIDS USING D-PSICOSE” (CJ CHEILJEDANG CORPORATION, priority 2015, published 2018)

Assays:
Format in all cases: in vivo, C57BL/6J mice
[1] = tested on: high-fat diet-induced obese mice; experiment: Body weight, organ weight and adipose tissue weight of high-fat diet-induced obese mice; details: for Adipose times weight: Epididymal fat / Adipose times weight: Interscapular BAT / Adipose times weight: Interscapular WAT / Adipose times weight: Mesentery fat / Adipose times weight: Perinephric fat / Adipose times weight: Retroperitoneum fat / Adipose times weight: Subcutaneous fat / Adipose times weight: Total WAT / Adipose times weight: Visceral fat / BWG (weight gain) / FER (food efficiency ratio = Weight gain/diet intake) / FinalBodyweight / Organ weights: Kidney / Organ weights: Liver / Organ weights: Muscle: HFD+5% w/w in diet, 16 weeks
Protocol: (§1) First, 4-week-old male C57BL/6J mice (60 total) were purchased from Jackson Laboratory. The animals were acclimated to the vivarium in a thermo-hygrostat (20-23° C., 45-65%) under a 12 h light/dark cycle and fed a pelletized commercial non-purified diet for 1 week after arrival. The mice were then randomly divided into 6 groups (n=10) and fed the respective experimental diets for 16 weeks: normal diet group (ND, American Institute of Nutrition (AIN)-76 semi-synthetic diet), high-fat diet group (HFD, 20% fat+1% cholesterol based on AIN-76 diet), PSI group (HFD+5% D-psicose, w/w, Sigma Chemical Company), ERY group (HFD+5% erythritol, w/w, Sigma Chemical Company), GLU group (HFD+5% D-glucose, w/w, Sigma Chemical Company), and FRU group (HFD+5% D-fructose, w/w, Sigma Chemical Company). All high-fat diet-fed groups were allowed to ingest the same calories by pair feeding based on the PSI group. The mice had ad libitum access to distilled water during the experimental period. Their feed intakes and body weights were measured daily and biweekly, respectively. The organ weights and the adipose tissue weights of the mice were measured after sacrificing the animals.

[2] = tested on: high-fat diet-induced obese mice; experiment: Hepatic tissue morphologies (H&E); details: FIG. 4C, 200×, HFD+5% w/w in diet, 16 weeks
Protocol: as §1
(§2) Liver tissues were removed from the mice in the normal diet group (ND) and high-fat diet groups (HFD, ERY, GLU, FRU, and PSI) and fixed in a buffer solution of 10% formalin. The fixed liver tissues were embedded in paraffin. […] sections were prepared from the liver tissues and their cross-sections were dyed with hematoxylin and eosin. Stained areas were observed using an optical microscope at a magnification of 200× (Nikon, Tokyo, Japan).

[3] = tested on: high-fat diet-induced obese mice; experiment: Adipose tissue morphologies (epididymal WAT, H&E); details: FIG. 5B, 200×, HFD+5% w/w in diet, 16 weeks
Protocol: as §1
as §2, with “Epididymal WATs” for “Liver tissues”, “epididymal WATs” for “liver tissues”

[4] = tested on: FAS (fatty acid synthase, 14101); experiment: Hepatic mRNA expression, real-time quantitative PCR: FAS; details: FIG. 6, liver, HFD+5% w/w in diet, 16 weeks
Protocol: as §1
(§3) Samples were prepared and analyzed as previously described. Specifically, total RNA was synthesized into cDNA using a QuantiTect Reverse Transcription kit (QIAGEN Gmb1h, Hilden, Germany). RNA expression was quantified with real-time quantitative PCR using a QuantiTect SYBR Green PCR kit (QIAGEN Gmb1h, Hilden, Germany). Primers were designed to detect FAS (fatty acid synthase, 14101), ACC1 (Acetyl-CoA carboxylase 1, 107476), CPT1α (Carnitine palmitoyltransferase 1α, 12894), and CPT2 (Carnitine palmitoyltransferase 2, 12896). GAPDH was used as an internal transcription marker. The reaction was performed a total of 40 cycles (each consisting of 15 sec at 94° C., 30 sec at 58° C., 30 sec at 72° C., and 15 sec at 65° C.). Fluorescence signals were monitored every cycle and the resulting threshold cycles (Ct) were analyzed. mRNA expression in each experimental group was quantified using a CFX96 Real time system (Bio-rad, USA).

[5] = tested on: CPT2 (Carnitine palmitoyltransferase 2, 12896); experiment: Hepatic mRNA expression, real-time quantitative PCR: CPT2; details: FIG. 6, liver, HFD+5% w/w in diet, 16 weeks
Protocol: as §1, §3

[6] = tested on: FATP4 (fatty acid transporter 4, 26569); experiment: Small intestine mRNA expression, real-time quantitative PCR: FATP4; details: FIG. 8, HFD+5% w/w in diet, 16 weeks
Protocol: as §1
as §3, with “CD36 (cluster of differentiation 36, 12491), ApoB48 (apolipoprotein B 48, 238055), FATP4” for “FAS”, “transporter 4, 26569), ABCG5 (ATP-binding cassette sub-family G member5, 27409),” for “synthase, 14101), ACC1 (Acetyl-CoA carboxylase 1, 107476), CPT1α (Carnitine palmitoyltransferase 1α, 12894),”, “ABCG8 (ATP-binding cassette sub-family G member8, 67470).” for “CPT2 (Carnitine palmitoyltransferase 2, 12896).”

[7] = tested on: ApoB48 (apolipoprotein B 48, 238055); experiment: Small intestine mRNA expression, real-time quantitative PCR: ApoB48; details: FIG. 8, HFD+5% w/w in diet, 16 weeks
Protocol: as §1
as §3, with “CD36 (cluster of differentiation 36, 12491), ApoB48 (apolipoprotein B 48, 238055), FATP4” for “FAS”, “transporter 4, 26569), ABCG5 (ATP-binding cassette sub-family G member5, 27409),” for “synthase, 14101), ACC1 (Acetyl-CoA carboxylase 1, 107476), CPT1α (Carnitine palmitoyltransferase 1α, 12894),”, “ABCG8 (ATP-binding cassette sub-family G member8, 67470).” for “CPT2 (Carnitine palmitoyltransferase 2, 12896).”

| Compound | Adipose times weight: Epididymal fat [1] [g/100 g Body weight] | Adipose times weight: Interscapular BAT [1] [g/100 g Body weight] | Adipose times weight: Interscapular WAT [1] [g/100 g Body weight] | Adipose times weight: Mesentery fat [1] [g/100 g Body weight] | Adipose times weight: Perinephric fat [1] [g/100 g Body weight] | Adipose times weight: Retroperitoneum fat [1] [g/100 g Body weight] | Adipose times weight: Subcutaneous fat [1] [g/100 g Body weight] | Adipose times weight: Total WAT [1] [g/100 g Body weight] | Adipose times weight: Visceral fat [1] [g/100 g Body weight] | BWG (weight gain) [1] [g/16 weeks] | FER (food efficiency ratio = Weight gain/diet intake) [1] | FinalBodyweight [1] [g] | Organ weights: Kidney [1] [g/100 g Bodyweight] | Organ weights: Liver [1] [g/100 g Bodyweight] | accumulation / size of adipocytes in the liver tissues [2] | size of adipocytes in the epididymal WATs [3] | hepatic mRNA expression level of FAS [4] | hepatic mRNA expression level of CPT2 [5] | mRNA expression level of FATP4 in the small intestine [6] | mRNA expression level of ApoB48 in the small intestine [7] | further results |
| --- | --- | --- | --- | --- | --- | --- | --- | --- | --- | --- | --- | --- | --- | --- | --- | --- | --- | --- | --- | --- | --- |
| O=C(CO)[C@@H](O)[C@H](O)[C@H](O)CO [FRU, D-fructose] | 8.50 | 0.73 | 4.43 | 2.93 | 1.17 | 2.19 | 3.78 | 22.65 | 18.22 | 1.39 | 0.065 | 41.26 | 0.84 | 5.68 | more distinctly observed than in the liver tissues of the ND group | increase in the size of adipocytes | significantly lower than those in the ND group | significantly lower than those in the ND group | significantly higher | significantly higher | Organ weights: Muscle [1]: 0.83 g/100 g Bodyweight |
| O=C(CO)[C@H](O)[C@H](O)[C@H](O)CO [PSI, D-psicose] | – | – | – | – | – | – | – | – | – | 0.70 | – | – | – | 4.35 | smaller than that in the liver tissues of other high-fat diet groups | relatively small compared to that in the other high-fat diet groups | much significantly lower than those in the ND group | much significantly lower than those in the ND group | significantly lower in the PSI group than those in other high-fat diet groups | significantly lower in the PSI group than those in other high-fat diet groups | increases in the body weight over time ([1]; FIG. 1, HFD+5% w/w in diet, measured biweekly over 16 weeks): considerably inhibited from 4 weeks after diet feeding; Organ weights: Liver ([1]; listed as D-psicose): to levels similar to those of the ND group; mRNA expression level of FATP4 in the small intestine ([6]; listed as D-psicose): reduces mRNA expression; mRNA expression level of ApoB48 in the small intestine ([7]; listed as D-psicose): reduces mRNA expression |
| O=C[C@H](O)[C@@H](O)[C@H](O)[C@H](O)CO [GLU, D-glucose] | 8.42 | 0.71 | 4.54 | 2.62 | 1.15 | 2.01 | 5.47 | 24.21 | 19.67 | 1.39 | 0.065 | 41.77 | 0.74 | 5.22 | more distinctly observed than in the liver tissues of the ND group | increase in the size of adipocytes | significantly lower than those in the ND group | significantly lower than those in the ND group | significantly higher | significantly higher | Organ weights: Muscle [1]: 0.82 g/100 g Bodyweight |
| OC[C@@H](O)[C@@H](O)CO [ERY, erythritol] | 7.92 | 0.57 | 4.56 | 2.43 | 0.92 | 2.21 | 4.88 | 22.93 | 18.36 | 1.32 | 0.059 | 40.22 | 0.77 | 5.37 | more distinctly observed than in the liver tissues of the ND group | increase in the size of adipocytes | significantly lower than those in the ND group | significantly lower than those in the ND group | significantly higher | significantly higher | Organ weights: Muscle [1]: 0.77 g/100 g Bodyweight |
